Earlier results, collected in patent US20080241076A1, “Method and composition for increasing Erythropoietin” (priority 2007, published 2008).

Legend:
[1] = in-vitro, 14C-labeled
[2] = test system: kidney production of EPO; details: dog kidneys; substances given separately
[3] = test system: erythrocyte; details: Carnitine supplementation
[4] = test system: RBC
[5] = test system: responsiveness to EPO; details: in vivo
[6] = test system: hemoglobin levels; details: hemodialysis patients
[7] = human, in vivo
[8] = test system: renal EPO production; details: animal studies
[9] = test system: endogenous glutathione
[10] = test system: erythrocyte 2,3-bisphosphoglycerate (2,3-BPG); details: following phosphate loading
[11] = test system: blood clots; details: human trials, feeding
[12] = test system: induced clots; details: dogs with induced clots
[13] = test system: blood flow; details: animal study

What does the source list for `CCCCC/C=C\C/C=C\C/C=C\C/C=C\CCCC(=O)O` [Arachidonic Acid, all-cis-5,8,11,14-eicossatetraenoic acid]?
prostaglandins produced from Arachidonic acid [1]: PGD2, PGE2, PGF2 alpha and 6-keto-PGF1 alpha; kidney production of EPO [2]: increased

With `C[N+](C)(C)CC(O)CC(=O)[O-]` (stereo not drawn) [Carnitine] as the molecule, how does the erythrocyte survival time [3] read?
The erythrocyte survival time was “increase”.

With `CCCCC[C@H](O)/C=C/[C@H]1[C@H](O)CC(=O)[C@@H]1C/C=C\CCCC(=O)O` [PGE2, reference compound] as the molecule, how does the “kidney production of EPO” value [2] read?
The value was “increased”.

What about the “iron incorporation in RBC” value [4] of the same molecule?
Its value is “significant increase”.

What does the source list for `O=C1O[C@H]([C@@H](O)CO)C(O)=C1O` [Vitamin C]?
responsiveness to EPO [5]: improve; hemoglobin levels [6]: significant increases

With `[Se]` [selenium] as the molecule, how does the “elemental concentration in whole blood and plasma” value [7] read?
The value was “significant increase”.

With Vitamin A as the molecule, how does the “renal EPO production” value [8] read?
Its value is “increase”.

For Vitamin E, which endogenous glutathione [9] is on record?
Its endogenous glutathione is “stabilize”.

For phosphate, which “erythrocyte 2,3-BPG” value [10] is on record?
The value was “significant increase”.

B1: Nattokinase: potent fibrinolytic enzyme extracted from a Japanese food called Natto (protein, UniProt P35835 107-381, looked up)
Subtilisin NAT: AQSVPYGISQIKAPALHSQGYTGSNVKVAVIDSGIDSSHPDLNVRGGASFVPSETNPYQDGSSHGTHVAGTIAALNNSIGVLGVAPSASLYAVKVLDSTGSGQYSWIINGIEWAISNNMDVINMSLGGPTGSTALKTVVDKAVSSGIVVAAAAGNEGSSGSTSTVGYPAKYPSTIAVGAVNSSNQRASFSSVGSELDVMAPGVSIQSTLPGGTYGAYNGTSMATPHVAGAAALILSKHPTWTNAQVRDRLESTATYLGNSFYYGKGLINVQAAAQ
For B1, which “ability to dissolve blood clots” value [11] is on record?
Its value is “heightened ability to dissolve blood clots”.

What about the “time to regain normal blood circulation” value [12] of the same molecule?
The value was “within five hours”.

And the “regain in blood flow” value [13]?
Its value is 62%.

B2: plasmin: the body's natural fibrinolytic enzyme (protein, UniProt P00747 20-580; P00747 581-810, looked up)
Plasmin heavy chain A: EPLDDYVNTQGASLFSVTKKQLGAGSIEECAAKCEEDEEFTCRAFQYHSKEQQCVIMAENRKSSIIIRMRDVVLFEKKVYLSECKTGNGKNYRGTMSKTKNGITCQKWSSTSPHRPRFSPATHPSEGLEENYCRNPDNDPQGPWCYTTDPEKRYDYCDILECEEECMHCSGENYDGKISKTMSGLECQAWDSQSPHAHGYIPSKFPNKNLKKNYCRNPDRELRPWCFTTDPNKRWELCDIPRCTTPPPSSGPTYQCLKGTGENYRGNVAVTVSGHTCQHWSAQTPHTHNRTPENFPCKNLDENYCRNPDGKRAPWCHTTNSQVRWEYCKIPSCDSSPVSTEQLAPTAPPELTPVVQDCYHGDGQSYRGTSSTTTTGKKCQSWSSMTPHRHQKTPENYPNAGLTMNYCRNPDADKGPWCFTTDPSVRWEYCNLKKCSGTEASVVAPPPVVLLPDVETPSEEDCMFGNGKGYRGKRATTVTGTPCQDWAAQEPHRHSIFTPETNPRAGLEKNYCRNPDGDVGGPWCYTTNPRKLYDYCDVPQCAAPSFDCGKPQVEPKKCPGR
Plasmin light chain B: VVGGCVAHPHSWPWQVSLRTRFGMHFCGGTLISPEWVLTAAHCLEKSPRPSSYKVILGAHQEVNLEPHVQEIEVSRLFLEPTRKDIALLKLSSPAVITDKVIPACLPSPNYVVADRTECFITGWGETQGTFGAGLLKEAQLPVIENKVCNRYEFLNGRVQSTELCAGHLAGGTDSCQGDSGGPLVCFEKDKYILQGVTSWGLGCARPNKPGVYVRVSRFVTWIEGVMRNN
modifications: plasmin
notes: the body's natural fibrinolytic enzyme
For B2, which “regain in blood flow” value [13] is on record?
Its value is 15.8%.
